Experimental findings from PubChem BioAssay (NCI) are described below.

The structures appear in SMILES notation.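 Protocol summary: plate cells (96-well), add compound at 5 concentrations, incubate 48 h, interpolate endpoints linearly. GI50 marks 50% less growth. TGI marks complete inhibition of growth.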 A value given as a limit tells only on which side of the number the result lay.

Holding throughout (test): NCI anticancer screen, dose series, 48 h
For experiment [1], the system named is RPMI-8226 leukemia.
The test system of experiment [2] is SW-620 colon.
In experiment [3] the test system is OVCAR-4 ovarian.
In experiment [4] the test system is SF-268 CNS.
The subject of experiment [5] is K-562 leukemia.
In experiment [6] the test system is SK-MEL-5 melanoma.
The test system of experiment [7] is A498 renal.
The subject of experiment [8] is MDA-MB-231 breast.

Take `Cc1ccc(C)c(NC(=O)NCc2ccc(Cl)cc2)c1`: the TGI in experiment [1] was > 100 µM; in experiment [2], > 100 µM; in experiment [3] it was > 100 µM; in experiment [4], > 100 µM; in experiment [5] it was 98.6 µM; in experiment [6], > 100 µM. The TGI in experiment [7] is 88.4 µM; in experiment [8] it was > 92 µM.
Turning to `CC/C=C\C/C=C\C[C@H](O)C/C=C1/C(=O)C=C[C@@H]1C/C=C\CCCC(=O)O`, the GI50 in experiment [1] was 2.63 µM; in experiment [2] it was 4.46 µM; in experiment [3] it was 4.15 µM; in experiment [4], 5.2 µM; in experiment [5], 3.17 µM; in experiment [6] it was 2.42 µM. For the same molecule, the GI50 is 16 µM in experiment [7] and 7.94 µM in experiment [8]. Further, the TGI was 12.1 µM in experiment [1]; 70.6 µM in experiment [2]; 20 µM in experiment [3]; 34 µM in experiment [4]; > 100 µM in experiment [5]; 5.98 µM in experiment [6]. The values for the TGI in experiment [7] and in experiment [8] were 31.1 µM and 44.4 µM, respectively.
With `Cc1cc(=O)[nH]o1`, the TGI in experiment [1], in experiment [2], in experiment [3], in experiment [4], in experiment [5] and in experiment [8] was > 100 µM each time.
For the molecule `COC(=O)[C@]12CC[C@@H](C)[C@H](C)[C@@H]1C1=CC[C@@H]3[C@@]4(C)C(C=O)=C[C@@](C)(COC(=O)c5ccco5)[C@@H]4C(=O)C[C@@]3(C)[C@]1(C)CC2`, the GI50 was 2.06 µM in experiment [1]; 4.9 µM in experiment [2]; 3.57 µM in experiment [3]; 7.03 µM in experiment [4]; 3.95 µM in experiment [5]; 0.294 µM in experiment [6]. For the same molecule, the GI50 in experiment [7] was 12.1 µM; in experiment [8], 4.97 µM. Moreover, the TGI is 6.68 µM in experiment [1]; > 100 µM in experiment [2]; > 100 µM in experiment [3]; > 100 µM in experiment [4]; > 100 µM in experiment [5]; 1.45 µM in experiment [6]. The TGI in experiment [7] was 94.7 µM; in experiment [8], > 100 µM.
As for `Cc1ccc(Nc2n[nH]c(=S)s2)cc1`, the TGI in experiment [1], in experiment [2], in experiment [4], in experiment [5], in experiment [6] and in experiment [7] was > 100 µM each time. The TGI in experiment [8] is > 100 µM.
Turning to `N#Cc1ccc(N2Cc3ccccc3OC3=C2C(=O)c2c(O)ccc(O)c2C3=O)cc1`, the GI50 in experiment [1] is 0.261 µM; in experiment [2], 0.0906 µM; in experiment [3] it was 0.216 µM; in experiment [4] it was 0.598 µM; in experiment [5] it was 0.071 µM; in experiment [6], 0.685 µM. Also, the GI50 is 1.79 µM in experiment [7] and 0.242 µM in experiment [8]. For the same molecule, the TGI was 1.31 µM in experiment [1]; 0.306 µM in experiment [2]; 0.793 µM in experiment [3]; 1.72 µM in experiment [4]; 2.26 µM in experiment [6]; 4.13 µM in experiment [7]. In experiment [8], this molecule gave a TGI of 0.994 µM.
`CN(C)CCNC(=O)Cn1cc([N+](=O)[O-])c(=O)c2ccccc21`: the TGI in experiment [2], in experiment [4], in experiment [5], in experiment [6], in experiment [7] and in experiment [8] was > 100 µM each time.
Take `OCC1OC(OCC(O)C(O)C(O)C(/C=N/Nc2ccccc2)=N/Nc2ccccc2)C(O)C(O)C1O` (stereo unspecified): the TGI in experiment [1], in experiment [2], in experiment [4], in experiment [6] and in experiment [8] was > 100 µM each time.
With `CCOC(=O)C1=C(O)CSC1=Nc1ccccc1`, the TGI in experiment [1], in experiment [2], in experiment [3], in experiment [4] and in experiment [5] was > 100 µM in each case.
Take `COc1cccc2c1-c1c(c3ccc([N+](=O)[O-])cc3c(=O)n1CCCCl)C2=O`: the GI50 was 3.69 µM in experiment [1]; 0.286 µM in experiment [2]; 0.00993 µM in experiment [4]; > 50 µM in experiment [5]; 0.791 µM in experiment [6]; 17.4 µM in experiment [7]. Besides, the GI50 in experiment [8] is 29.5 µM. The TGI in experiment [1] was > 50 µM; in experiment [2], > 50 µM; in experiment [4], 3.96 µM; in experiment [5], > 50 µM; in experiment [6] it was > 50 µM; in experiment [7] it was > 50 µM. Further, in experiment [8], the TGI was > 50 µM.
As for `O=C(O)Cc1cccc2c1Oc1ccccc1S2`, the TGI in experiment [1], in experiment [2], in experiment [3], in experiment [4], in experiment [5] and in experiment [6] was > 100 µM in each case. For the same molecule, the TGI in experiment [7] was > 100 µM.
Turning to `CN=C(NC#N)NCCSCc1nc[nH]c1C`, the TGI in experiment [2], in experiment [3], in experiment [4], in experiment [5], in experiment [6] and in experiment [7] was > 100 µM each time. In addition, in experiment [8], the TGI is > 100 µM.
For `Cc1cc(C2=NNC(=O)Cc3cc4c(cc32)OCCO4)cc(C)c1N`, the GI50 is 0.965 µM in experiment [2]; 6.4 µM in experiment [3]; 4.21 µM in experiment [4]; 1.22 µM in experiment [6]; 3.31 µM in experiment [7]; 6.25 µM in experiment [8]. Also, the TGI was > 100 µM in experiment [2]; > 100 µM in experiment [3]; > 100 µM in experiment [4]; > 100 µM in experiment [6]; 99.4 µM in experiment [7]; > 100 µM in experiment [8].
As for `CO/N=C(\C)c1cccc(Nc2cc(-c3ccccc3)nc3c(O)cccc23)c1`, the GI50 in experiment [1] was 2.91 µM; in experiment [2], 4.5 µM; in experiment [3] it was 61.3 µM; in experiment [5], 0.656 µM; in experiment [6], 16.6 µM; in experiment [8], 2.74 µM. For the same molecule, the TGI in experiment [1] was 8.59 µM; in experiment [2] it was 19.6 µM; in experiment [3], > 100 µM; in experiment [5] it was > 100 µM; in experiment [6], 39.2 µM; in experiment [8], 9.4 µM.
